Literature values in patent publication US10301318B2, “Neuroactive compounds and methods of using the same” (THE GENERAL HOSPITAL CORPORATION, priority 2014, dated 2019).

Tested on: mice
Conditions: literature

O=C(CCCN1CCC(O)(c2ccc(Cl)cc2)CC1)c1ccc(F)cc1 [haloperidol]
reversal of PCP-induced hyperlocomotion: can be reversed
